The values below come from ChEMBL document CHEMBL1201862, “PubChem BioAssay data set” (2004).

Values joined by “and” are separate entries in the source; they are usually repeats but may differ in a detail not shown here. Equal values may be shown once.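 In this assay, cells in 96-well plates receive the compound at five concentrations for 48 hours. Endpoints are linearly interpolated between the surrounding concentrations. GI50 = concentration required for 50% inhibition of growth.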 Active and inactive are the calls of the source. Rule as the data show it: active = GI50 up to about 1.1 µM and inactive = higher.

Test in all cases: inhibition of tumour cell growth, NCI panel, 48 h
In assay [1] the test system is 786-0.
Assay [2] relates to CAKI-1.
Assay [3] concerns CCRF-CEM.
Assay [4] relates to COLO 205.
Assay [5] concerns HOP-62.
Assay [6] deals with IGROV-1.
Assay [7] deals with LOX IMVI.
In assay [8] the test system is M14.
Assay [9] has as its system MOLT-4.
Assay [10] concerns NCI-H23.
Assay [11] has as its system NCI-H522.
Assay [12] concerns OVCAR-3.
For assay [13], the system named is OVCAR-5.
In assay [14] the test system is RXF 393.
Assay [15] concerns SF-295.
Assay [16] deals with SK-MEL-28.
Assay [17] concerns SNB-75.
Assay [18] relates to SW-620.
Assay [19] concerns UACC-62.
Assay [20] deals with UO-31.

`CC(=O)c1cccc(C)c1C(=O)O`: the GI50 in assay [1], in assay [2], in [3], in assay [4], in assay [5] and in [6] was > 100 µM (inactive) throughout. The GI50 in assay [7], in assay [8], in assay [9], in assay [10], in assay [11] and in [12] was > 100 µM (inactive) in each case. In addition, the GI50 in assay [13], in assay [14], in assay [15], in assay [16], in assay [17] and in [18] was > 100 µM (inactive) throughout. For the same molecule, the GI50 in assay [19] and in assay [20] was > 100 µM (inactive) each time.

`Cc1nn(C(=O)c2ccncc2)c2c1C(c1ccccc1O)SC(=N)N2` (stereo unspecified): the GI50 in assay [1], in [2], in assay [3], in assay [4], in assay [5] and in assay [6] was > 10 µM (inactive) in each case. Moreover, the GI50 in assay [7], in assay [8], in assay [9], in assay [10], in [11] and in [12] was > 10 µM (inactive) each time. Moreover, the GI50 in [13], in [14], in assay [15], in assay [16], in assay [17] and in [18] was > 10 µM (inactive) in each case. In addition, the GI50 in assay [19] is > 10 µM (inactive).

Turning to `N#CC1=C(N)N2C(=O)/C(=C/c3ccccc3O)N=C2S1`, the GI50 in [1] is > 100 µM (inactive); in assay [2], 51.5 µM (inactive); in assay [3], 26.4 µM (inactive); in assay [4], > 100 µM (inactive); in [5], > 100 µM (inactive); in [6], 29.8 µM (inactive). Also, the GI50 in assay [7] is 53.2 µM (inactive); in assay [8], 49.9 µM (inactive); in assay [9], 18.5 µM (inactive); in assay [10] it was 95.3 µM (inactive); in assay [11] it was 47.8 µM (inactive); in assay [12] it was 66.2 µM (inactive). The GI50 in assay [13] was 98.9 µM (inactive); in assay [14], 93.3 µM (inactive); in assay [15] it was > 100 µM (inactive); in assay [16], > 100 µM (inactive); in assay [17] it was 32.9 µM (inactive); in [18], > 100 µM (inactive). Moreover, the GI50 in assay [20] is 94.6 µM (inactive).

As for `CCCCOC(=O)/C(CC(=O)C=C(C)C)=N\NS(=O)(=O)c1ccc(C)cc1`, the GI50 is > 100 µM (inactive) in assay [1]; > 100 µM (inactive) in assay [2]; > 100 µM (inactive) in [3]; 46.1 µM (inactive) in [4]; > 100 µM (inactive) in assay [5]; > 100 µM (inactive) in assay [6]. Moreover, the GI50 in assay [7] is 71.3 µM (inactive); in assay [8] it was > 100 µM (inactive); in assay [9], > 100 µM (inactive); in assay [10], > 100 µM (inactive); in [11] it was 41.8 µM (inactive); in [12], > 100 µM (inactive). The GI50 in assay [13], in assay [14], in assay [15], in assay [16], in assay [17] and in assay [19] was > 100 µM (inactive) in each case. The GI50 in [20] is > 100 µM (inactive).

For the molecule `CC1=NC(=N)N=C(C)C1/N=N/c1ccc2[nH]c(C)nc2c1` (stereo unspecified), the GI50 in [1], in assay [2], in [3], in assay [4], in assay [5] and in [6] was > 100 µM (inactive) in each case. The GI50 in [7], in assay [8], in [9], in assay [10], in assay [11] and in assay [12] was > 100 µM (inactive) in each case. Further, the GI50 in [13], in assay [14], in [15], in assay [16], in [17] and in assay [18] was > 100 µM (inactive) in each case. For the same molecule, the GI50 in [19] is > 100 µM (inactive).

On to `COC(=O)[C@@H]1CC(C(C[N+](=O)[O-])c2ccc(O[Si](C)(C)C(C)(C)C)cc2)C(=O)N1C(=O)OC(C)(C)C` (stereo partly specified), for which the GI50 is > 100 µM (inactive) in assay [1]; > 100 µM (inactive) and 90.4 µM (inactive) in assay [2]; 27.7 µM (inactive) and 18.1 µM (inactive) in [3]; > 100 µM (inactive) in assay [5]; > 100 µM (inactive) in assay [6]; > 100 µM (inactive) in [7]. For the same molecule, the GI50 in assay [8] was 52.5 µM (inactive); in [11] it was 53.2 µM (inactive) and 60.5 µM (inactive); in [12] it was > 100 µM (inactive); in [13], > 100 µM (inactive); in assay [14], 29.9 µM (inactive) and 20.6 µM (inactive); in [15] it was > 100 µM (inactive) and 59.2 µM (inactive). The GI50 in [16] was > 100 µM (inactive); in assay [17], > 100 µM (inactive); in assay [18], > 100 µM (inactive); in [20], 32.7 µM (inactive) and 60.7 µM (inactive).

In the case of `COc1ccc(CC(C#N)c2cc(OC)c(OC)c(OC)c2)cc1` (stereo unspecified), the GI50 is 0.125 µM (active) in [1]; 0.0455 µM (active) in assay [2]; 0.0668 µM (active) in assay [3]; 0.029 µM (active) in [4]; 0.0869 µM (active) in assay [5]; 0.0809 µM (active) in assay [6]. Further, the GI50 in [7] is 0.0328 µM (active); in [8], 0.0472 µM (active); in assay [9], 0.121 µM (active); in assay [10], 0.109 µM (active); in assay [11], 0.0267 µM (active); in assay [12], 0.0279 µM (active). Also, the GI50 was 6.27 µM (inactive) in assay [13]; 0.0575 µM (active) in [14]; 0.0184 µM (active) in assay [15]; 0.0619 µM (active) in assay [16]; 0.0475 µM (active) in assay [17]; 0.0236 µM (active) in assay [18]. Besides, the GI50 is 0.0275 µM (active) in assay [19] and 0.442 µM (active) in assay [20].

For `CN(C)Cc1cc(C(=O)/C=C/c2ccc(Cl)cc2Cl)cc(CN(C)C)c1O`, the GI50 in assay [1] was 3.77 µM (inactive); in assay [2], 2.36 µM (inactive); in assay [3], 2.16 µM (inactive); in assay [4], 1.44 µM (inactive); in assay [5] it was 3.54 µM (inactive); in [6] it was 2.72 µM (inactive). Besides, the GI50 in [7] is 1.2 µM (inactive); in assay [8] it was 2.75 µM (inactive); in [9], 1.88 µM (inactive); in assay [10], 6.9 µM (inactive); in assay [11], 2.56 µM (inactive); in [12] it was 2.99 µM (inactive). The GI50 in assay [13] was 15.2 µM (inactive); in assay [14], 2.51 µM (inactive); in assay [15], 3.34 µM (inactive); in [16], 6.25 µM (inactive); in assay [17], 2.95 µM (inactive); in assay [18] it was 2.81 µM (inactive). In assay [20], the GI50 was 2.07 µM (inactive).
